Source: US8183252B2, “Heterocyclic aspartyl protease inhibitors” (Schering Corporation, priority 2007, dated 2012)
Where two headings read alike, the source gives them in different places.

Molecular target: T1, human BACE1 (sproBACE1) (Homo sapiens, UniProt P56817)
T1 construct: sBACE1, corresponding to amino acids 1-454; made in house; host or cells: Sf9 insect cells (baculovirus), secreted into the medium
Experiment: BACE-1 Peptide Hydrolysis Assay (HTRF)
Type: biochemical
Source text: A HindIII/PmeI fragment from pCDNA4-sBACE1myc/His was blunt ended using Klenow and subcloned into the Stu I site of PFASTBACI(A) (Invitrogen). A sBACE1mycHis recombinant bacmid was generated by transposition in DH10Bac cells (GIBCO/BRL). Subsequently, the sBACE1mycHis bacmid construct was transfected into sf9 cells using CellFectin (Invitrogen, San Diego, Calif.) in order to generate recombinant baculovirus. […] Five milliliters of high titer plaque purified sBACEmyc/His virus was used to infect 1 L of logarithmically growing sf9 cells for 72 hours. Intact cells were pelleted by centrifugation at 3000×g for 15 minutes. The supernatant, containing secreted sBACE1, was collected and diluted 50% v/v with 100 mM HEPES, pH 8.0. The diluted medium was loaded onto a Q-sepharose column. The Q-sepharose column was washed with Buffer A (20 mM HEPES, pH 8.0, 50 mM NaCl).
Proteins, were eluted from the Q-sepharose column with Buffer B (20 mM HEPES, pH 8.0, 500 mM NaCl). The protein peaks from the Q-sepharose column were pooled and loaded onto a Ni-NTA agarose column. The Ni-NTA column was then washed with Buffer C (20 mM HEPES, pH 8.0, 500 mM NaCl). Bound proteins were then eluted with Buffer D (Buffer C+250 mM imidazole).
Reactions were initiated by addition of substrate in a 5 μl aliquot resulting in a total volume of 25 μl. After 3 hr at 30° C. reactions were terminated by addition of an equal volume of 2× stop buffer containing 50 mM Tris-HCl pH 8.0, 0.5 M KF, 0.001% Brij-35, 20 μg/ml SA-XL665 (cross-linked allophycocyanin protein coupled to streptavidin; CIS-Bio International, France) (0.5 μg/well). Plates were shaken briefly and spun at 1200×g for 10 seconds to pellet all liquid to the bottom of the plate before the incubation.
Y=Bottom+(Top-Bottom)/(1+10^((LogEC50−X)*Hill Slope)); X is the logarithm of concentration of I, Y is the percent change in ratio and Y starts at bottom and goes to top with a sigmoid shape.

T1 sequence (P56817 22-454): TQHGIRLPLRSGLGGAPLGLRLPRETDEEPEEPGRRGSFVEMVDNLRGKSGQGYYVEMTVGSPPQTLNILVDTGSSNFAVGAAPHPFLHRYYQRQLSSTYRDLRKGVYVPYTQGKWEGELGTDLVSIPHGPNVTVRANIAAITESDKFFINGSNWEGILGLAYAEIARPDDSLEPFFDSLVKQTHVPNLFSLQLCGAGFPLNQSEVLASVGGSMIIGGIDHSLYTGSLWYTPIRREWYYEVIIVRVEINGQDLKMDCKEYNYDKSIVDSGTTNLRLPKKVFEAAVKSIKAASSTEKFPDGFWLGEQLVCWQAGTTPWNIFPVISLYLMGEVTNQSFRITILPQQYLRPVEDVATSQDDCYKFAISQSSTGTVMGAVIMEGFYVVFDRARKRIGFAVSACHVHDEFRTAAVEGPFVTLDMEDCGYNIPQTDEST

Row | Compound | Ki (read-out: BACE-1 Ki) [µM] | Ki [µM]
1 | C=C1C(=O)N(C)C(=N)N[C@]1(C)c1cccc(-c2cccc(C#N)c2)c1 | < 5 | –
2 | CCC[C@H]1C(=O)N(C)C(=N)N[C@]1(C)c1cccc(-c2cccc(C#N)c2)c1 | < 5 | –
3 | CN1C(=N)N[C@](C)(c2cc(-c3cccc(Br)c3)ns2)CC1=O | < 5 | –
4 | CN1OCC(C)(c2cccc(-c3cc(Cl)cc(Cl)c3)c2)NC1=N (stereo not drawn) | < 5 | –
5 | CC(C)N1C(=N)NC(c2cccc(-c3cccc(Cl)c3)c2)(C2CC2)C1=O (stereo not drawn) [4-imidazolidinone, 5-(3′-chloro[1,1′-biphenyl]-3-yl)-5-cyclopropyl-2-imino-3-(1-methylethyl)-] | < 5 | –
6 | CCCS(=O)(=O)N1CCC[C@H](CN2C(=N)NC(c3ccccc3)(c3ccccc3)C2=O)C1 | < 5 | –
7 | CC(=O)N1CCC(CN2C(=N)NC(C)(c3cccc(-c4cccc(C(=O)NCc5ccco5)c4)c3)C2=O)CC1 (stereo not drawn) | < 5 | –
8 | CN1C(=N)N[C@](CCC2CCCCC2)(C[C@H]2CCC[C@@H](NC(=O)Cc3ccc4ccccc4c3)C2)C1=O | < 5 | –
9 | CN1C(=N)NC(c2ccccc2)(c2cc(-c3cccnc3)cs2)C1=O (stereo not drawn) | < 5 | –
10 | CN1C(=N)N[C@](C)(c2cccc(-c3ccc4scnc4c3)c2)CC1=O | < 5 | –
11 | Cc1cc(F)ccc1[C@]1(C)CC(=O)N(C)C(=N)N1 | < 5 | –
12 | CCN(CCc1cccc(C2(c3ccccc3)NC(=N)N(C)C2=O)c1)S(C)(=O)=O (racemic) | < 5 | –
13 | CCCn1ncc2ccc([C@]3(C)CC(=O)N(C)C(=N)N3)cc21 | < 5 | –
14 | CN1C(=N)N[C@](C)(c2cccc(-c3cccnc3F)c2)CC1=O | < 5 | –
15 | CN1C(=N)NC(c2ccccc2)(c2cccc(-c3cccc(CO)c3)c2)C1=O (stereo not drawn) | < 5 | –
16 | CN1C(=N)N[C@](CCc2ccccc2)(C[C@H]2CCC[C@@H](NC(=O)c3cccnc3)C2)C1=O | < 5 | –
17 | CN1C(=N)NC(c2ccccc2)(c2cc(-c3cccc(F)c3)cs2)C1=O (stereo not drawn) [5-[4-(3-FLUOROPHENYL)-2-THIENYL]-2-IMINO-3-METHYL-5-PHENYL-4-IMIDAZOLIDINONE] | < 5 | –

Row | Compound | Ki (read-out: BACE-1 Ki) [µM] | Ki [µM]
18 | CN1C(=N)NC(c2ccccc2)(c2cc(-c3cccc(C#N)c3)cs2)C1=O (stereo not drawn) [3-[5-(2-IMINO-1-METHYL-5-OXO-4-PHENYL-4-IMIDAZOLIDINYL)-3-THIENYL]BENZONITRILE] | < 5 | –
19 | CN1C(=N)NC(CCc2ccccc2)(CC2CCCC(Nc3ccccn3)C2)C1=O (stereo not drawn) | < 5 | –
20 | CN1C(=N)N[C@](CCC2CCCCC2)(C[C@H]2CCC[C@H](NCCc3ccccc3)C2)C1=O | < 5 | –
21 | COC1C(=O)N(C)C(=N)NC1(C)c1cc(-c2ccc(F)c(C#N)c2)cs1 (single isomer, unassigned) | < 5 | –
22 | CN1C(=N)NC(C)(c2cccc(-c3cc(Cl)ccc3CNC(=O)Nc3ccc(Cl)cc3)c2)C1=O (stereo not drawn) [urea, N-[[5-chloro-3′-(2-imino-1,4-dimethyl-5-oxo-4-imidazolidinyl)[1,1′-biphenyl]-2-yl]methyl]-N′-(4-chlorophenyl)-] | < 5 | –
23 | Cc1cc([C@]2(C)CC(=O)N(C)C(=N)N2)sc1-c1cccc(C#N)c1 | < 5 | –
24 | CN1C(=N)NC(C)(c2cc(-c3cccc(C#N)c3)cs2)C(CCN2CCCCC2)C1=O (stereo not drawn) | < 5 | –
25 | COc1cncc(-c2cccc(C3(C)NC(=N)N(CC4CC(=O)N(c5ccccc5)C4)C3=O)c2)c1 (stereo not drawn) | < 5 | –
26 | CN1C(=N)N[C@](CCc2ccccc2)(C[C@H]2CCC[C@@H](NC3CCCC3)C2)C1=O | < 5 | –
27 | N=C1NC(c2ccccc2)(c2ccccc2)C(=O)N1CC1CCN(C(=O)CCN)CC1 | < 5 | –
28 | CC1(c2cccc(-c3cccc(Cl)c3)c2)NC(=N)N(CC2CCN(C(=O)Nc3ccccc3)C2)C1=O (stereo not drawn) | < 5 | –
29 | C[C@@]1(c2cc(-c3cccc(C#N)c3)cs2)CC(=O)N(Cc2ccncc2)C(=N)N1 | < 5 | –
30 | Cc1c(-c2ccc(F)c(C#N)c2)csc1[C@]1(C)CC(=O)N(C)C(=N)N1 | < 5 | –
31 | CCCCS(=O)(=O)Nc1cccc(CN2C(=N)NC(c3ccccc3)(c3ccccc3)C2=O)c1 | < 5 | –
32 | COc1cc(C#N)cc(-c2csc([C@]3(C)CC(=O)N(C)C(=N)N3)c2)c1 | < 5 | –
33 | CC(=O)N1CCC(CN2C(=N)NC(C)(c3cccc(-c4cccc5[nH]ccc45)c3)C2=O)CC1 (stereo not drawn) | – | < 5
